Source: patent US20040023893A1, “Novel coumarin derivatives and the salts thereof, a process for the preparation thereof and their use in the pharmaceutical field” (priority 2000, published 2004)
Like-named read-outs stand apart in the source and are kept apart here.

Assays:
nitrite-nitrate release = assay: Inhibition of the release of nitrite-nitrate in rat plasma after LPS; type: in vivo; details: 25 mg/Kg o.s. 30 minutes before and 3 hours after LPS 0.1 mg/Kg i.v., blood 8 hours after LPS, Griess reagent, saline controls = 100%
Procedure: Test 4—Inhibition of the Release of Nitrite-Nitrate in Rat Plasma
The release of nitrite-nitrite was measured with Griess reagent in blood samples taken 8 hours after the administration of LPS (0.1 mg/Kg) i.v.
The animals were treated with the compounds by o.s. (25 mg/Kg) 30 minutes before and 3 hours after LPS. The control animals received saline instead of the test compounds. The values for the release of nitrite-nitrate were made to correspond to 100%.

[1] = test system: TNF release, murine macrophage line (J774); assay: Inhibition of TNF release after stimulation with LPS in vitro, J774 macrophages (L929 mortality readout); type: cell-based; details: J774 macrophages stimulated with LPS, concentration (± standard error) inhibiting L929 fibroblast mortality by 50%, read-out: J774 CI50
Procedure: (§1) Test 1—Inhibition of TNF Release After Stimulation with LPS in vitro
(§2) The test compound was added to the culture medium in a murine macrophage line (J774) or to whole blood anti-coagulated with heparin. The cells were then stimulated with bacterial lipopolysacccharide. After incubation at 37° C. for a suitable length of time, the supernatant was removed from the culture and incubated with a line of murine fibroblasts (L929), sensitive to TNF. The quantity of TNF released after stimulation with LPS is measured by comparing mortality of the L929 cells with that of the controls. Table 1 reports for the single compounds the concentration (±standard error) able to inhibit fibroblast mortality (L929) by 50%.

TNF release, human blood = assay: Inhibition of TNF release after stimulation with LPS in vitro, whole blood (L929 mortality readout); type: cell-based; details: heparinised whole blood stimulated with LPS; concentration (± standard error) inhibiting L929 fibroblast mortality by 50%; read-out: Human blood CI50
Procedure: as §1, §2

TNF = assay: Inhibition of the release of TNF following stimulation with LPS in vivo; details: rat, blood 75 minutes after LPS, ELISA, vs saline controls
Procedure: (§3) Test 2—Inhibition of the Release of TNF and IL-β Following Stimulation with LPS in vivo
(§4) Conscious rats were injected with a dose of LPS, which is able to stimulate the release of TNF and IL-1β, having first received an intravenous administration (15 minutes beforehand) of the test compound at a dose of 0.5 mg/Kg or 2 mg/Kg. Blood levels of TNF and IL-1β were measured by the ELISA method on blood samples taken 75 minutes and 120 minutes after LPS respectively.
(§5) Table 2 below reports the percent of inhibition of each product compared to that of the controls treated with saline.

IL-1β = assay: Inhibition of the release of IL-1β following stimulation with LPS in vivo; details: rat, blood 120 minutes after LPS, ELISA, vs saline controls
Procedure: as §3, §4, §5

[2] = test system: carrageenin-induced oedema in rat paw; assay: Carrageenin-induced oedema in rat paw; type: in vivo; details: 2 mg/Kg i.v. 5 minutes before 1.5 mg carrageenin intraplantar, paws weighed 3 hours later, saline controls = 100%
Procedure: Test 3—Reduction in Inflammation in Carrageenin-Induced Oedema in Rat Paw
A model of acute inflammation induced by intraplantar injection of 1.5 mg of carrageenin in rat paw was used. Administration of the compounds (2 mg/Kg) was by the intravenous route 5 minutes before oedema was induced: 3 hours later the animals were sacrificed and their paws were weighed as an indication of inflammation. The control animals received saline instead of the test compounds. The weight of the paws of the control animals was taken to correspond to 100% on the inflammation index.

[3] = test system: superoxide anions, human whole blood; assay: Inhibition of superoxide anion formation induced by f-MLP in human whole blood; type: cell-based; details: 20 minutes preincubation at 37° C., f-MLP with cytochalasin B, read-out: CI50 (superoxide anion formation, Cytochrome C)
Procedure: Test 5—Inhibition of the Formation of Superoxide anions Induced by f-MLP in Human Whole Blood
Samples of whole blood diluted with PBS Cytochrome C were incubated for 20 minutes at 37° C. with the test compounds or saline before adding the chermotactic agent f-MLP (0.1 μm/l) in the presence of cytochalasin B. After 20 minutes of activation with this agent, the samples were centrifuged and readings were taken of the supernatants with a spectrophotometer to assess the reduction in Cytochrome C. Table 5 reports the concentrations that are effective in inhibiting the loss of Cytochrome C by 50%.

[4] = test system: platelet aggregation, human whole blood; assay: Inhibition of collagen-induced platelet aggregation in human whole blood; type: cell-based; details: collagen 1 μg/ml, 1 minute preincubation, count 5 minutes after collagen, vs saline, read-out: CI50 (platelet aggregation)
Procedure: Test 6—Inhibition of Collagen-Induced Platelet Aggregation in Human Whole Blood
The aggregation event was analysed by counting the single non-aggregated platelets with a cell counter 5 minutes after adding collagen (1 μg/ml). In these working conditions, collagen induces platelet aggregation of over 80%. The test compounds or saline as control were preincubated for 1 minute before the collagen was added.
Table 6 reports the concentrations that inhibit platelet aggregation by 50% compared to saline.

[5] = Toxicity after a single intravenous administration; type: in vivo; details: mouse, in vivo, male CD-1 mice, read-out: DMT (maximum tolerated dose, MTD)
Description: (§6) Test 7—Toxicity After a Single Intravenous Administration
(§7) Male CD-1 mice were used to assess the maximum non-lethal does (MNLD—the highest does at which no cases of mortality are observed) and the maximum tolerated does (MTD—does at which no evident or marked signs of tocicity or altered behaviour are observed).

Male CD-1 mice = assay: Toxicity after a single intravenous administration; type: in vivo
Description: as §6, §7

[6] = test system: Salmonella typhimurium (TA 98 and TA 100) and Escherichia coli (WP2 pKM101 and WP2 uvrA pKM1091); assay: Mutagenesis (Mini-Ames test); type: cell-based; details: with and without microsomal liver enzyme preparation
Procedure: Test 8—Mutagenesis (Mini-Ames Test)
The Mini-Ames test is a version of the traditional Ames test which involves the incubation of bacterial cells on 35-mm dishes instead of 100-mm dishes, and it requires a smaller quantity of product while maintaining the reliability of the result.
The test is conducted on two strains of Salmonella typhimurium requiring histidine (TA 98 and TA 100) and two strains of Escherichia coli requiring tryptophan (WP2 pKM101 and WP2 uvrA pKM1091).
The bacterial cells were exposed to different concentrations of the test compounds in the presence and absence of a microsomal liver enzyme preparation, to reveal any possible metabolite activity.
Mutagenic activity was determined as the ability of the test compound to induce a significant increase in the number of mutant clones compared to those developed spontaneously in the cultures with the control vehicle.

[7] = iv, dose of 0.5 mg/Kg i.v. 15 minutes before LPS
[8] = iv, dose of 2 mg/Kg i.v. 15 minutes before LPS
[9] = dose of 0.5 mg/Kg i.v. 15 minutes before LPS
[10] = dose of 2 mg/Kg i.v. 15 minutes before LPS

C[C@H]1C[C@H]2[C@@H]3CCC4=CC(=O)C=C[C@]4(C)[C@@]3(F)[C@@H](O)C[C@]2(C)[C@@]1(O)C(=O)CO [Betamethasone, reference compound]
% vs controls (release of nitrite-nitrate) (nitrite-nitrate release): 20%

CCOC(=O)COc1ccc2c(C)c(CCN(CC)CC)c(=O)oc2c1Cl [Compound 201006, Cloricromene, reference compound]
IC50 ([1]; Mus musculus): 57.9 ± 20 µM | IC50 (TNF release, human blood): 78.6 ± 10 µM | inhibition at 0.5 mg/kg (TNF; [7]): 9% | inhibition at 2 mg/kg (TNF; [8]): 30% | inhibition at 0.5 mg/kg (IL-1β; [7]): 45% | inhibition at 2 mg/kg (IL-1β; [8]): 28% | /o vs controls (paw weight, inflammation index) [2]: 79 /o | % vs controls (release of nitrite-nitrate) (nitrite-nitrate release): 99% | IC50 [3]: 52 µM | IC50 ([4]; Platelet): 35 µM | MTD [5]: 6.25 mg/kg | DMNL (maximum non-lethal dose, MNLD) (Male CD-1 mice): 12.5 mg(Kg

CCOC(=O)[C@@H](N)CSCC(O)COc1ccc2c(C)c(CCN(CC)CC)c(=O)oc2c1.Cl.Cl (some centres unmarked) [Compound 201261]
IC50 [1]: 25.4 µM | IC50 (TNF release, human blood): 9 µM | /o vs controls (paw weight, inflammation index) [2]: 86 /o | % vs controls (release of nitrite-nitrate) (nitrite-nitrate release): 98% | IC50 [4]: > 100 µM | DMNL (maximum non-lethal dose, MNLD) (Male CD-1 mice): 200 mg(Kg | DMT (maximum tolerated dose, MTD) (Male CD-1 mice): 50 mg/kg

CCCCC(O)COc1ccc2c(C)c(CCN(CC)CC)c(=O)oc2c1.Cl (centres unmarked) [Compound 201273]
IC50 [1]: 27.5 ± 5.3 µM | IC50 (TNF release, human blood): 40.4 ± 13.5 µM | % of inhibition of TNF (TNF; [9]): 72% | % of inhibition of TNF (TNF; [10]): 84% | % of inhibition of IL-1β (IL-1β; [9]): 67% | % of inhibition of IL-1β (IL-1β; [10]): 39% | /o vs controls (paw weight, inflammation index) [2]: 67 /o | % vs controls (release of nitrite-nitrate) (nitrite-nitrate release): 76% | IC50 [3]: > 100 µM | IC50 [4]: > 100 µM | DMNL (maximum non-lethal dose, MNLD) (Male CD-1 mice): 100 mg(Kg | DMT (maximum tolerated dose, MTD) (Male CD-1 mice): 25 mg/kg | Mutagenic activity (Mini-Ames test) [6]: None of the tested compounds (203152, 201273, 201326 and 201330) proved to be mutagenic

CCCCC(O)COc1ccc2c(C)c(CCN(CC)CC)c(=O)oc2c1Cl.Cl (centres unmarked) [Compound 201326]
IC50 [1]: 10.5 ± 3 µM | IC50 (TNF release, human blood): 23 ± 2 µM | % of inhibition of TNF (TNF; [9]): 85% | % of inhibition of TNF (TNF; [10]): 77% | % of inhibition of IL-1β (IL-1β; [9]): 40% | % of inhibition of IL-1β (IL-1β; [10]): 62% | /o vs controls (paw weight, inflammation index) [2]: 58 /o | % vs controls (release of nitrite-nitrate) (nitrite-nitrate release): 62% | IC50 [3]: > 100 µM | IC50 [4]: 78 µM | DMNL (maximum non-lethal dose, MNLD) (Male CD-1 mice): 50 mg(Kg | DMT (maximum tolerated dose, MTD) (Male CD-1 mice): 6.25 mg/kg | Mutagenic activity (Mini-Ames test) [6]: None of the tested compounds (203152, 201273, 201326 and 201330) proved to be mutagenic

CCN(CC)CCc1c(C)c2ccc(OCC(=O)NC3CCCCC3)c(Cl)c2oc1=O.Cl.Cl [Compound 201330]
IC50 [1]: 12 ± 3.9 µM | IC50 (TNF release, human blood): 12.6 ± 3.5 µM | % of inhibition of TNF (TNF; [9]): 75% | % of inhibition of TNF (TNF; [10]): 62% | % of inhibition of IL-1β (IL-1β; [9]): 33% | % of inhibition of IL-1β (IL-1β; [10]): 57% | /o vs controls (paw weight, inflammation index) [2]: 77 /o | IC50 [3]: 36 µM | IC50 [4]: 93 µM | DMNL (maximum non-lethal dose, MNLD) (Male CD-1 mice): 50 mg(Kg | DMT (maximum tolerated dose, MTD) (Male CD-1 mice): 25 mg/kg | Mutagenic activity (Mini-Ames test) [6]: None of the tested compounds (203152, 201273, 201326 and 201330) proved to be mutagenic

C=CCc1cc2c(C)c(CN3CCOCC3)c(=O)oc2c(CC=C)c1OCCCOc1c(CC=C)cc2c(C)c(CN3CCOCC3)c(=O)oc2c1CC=C.Cl.Cl [Compound 203152]
IC50 [1]: 13.3 ± 9 µM | IC50 (TNF release, human blood): > 80 µM | % of inhibition of TNF (TNF; [9]): 72% | % of inhibition of TNF (TNF; [10]): 73% | % of inhibition of IL-1β (IL-1β; [9]): 64% | % of inhibition of IL-1β (IL-1β; [10]): 60% | /o vs controls (paw weight, inflammation index) [2]: 90 /o | % vs controls (release of nitrite-nitrate) (nitrite-nitrate release): 108% | IC50 [3]: > 100 µM | IC50 [4]: > 100 µM | DMNL (maximum non-lethal dose, MNLD) (Male CD-1 mice): 200 mg(Kg | DMT (maximum tolerated dose, MTD) (Male CD-1 mice): 50 mg/kg | Mutagenic activity (Mini-Ames test) [6]: None of the tested compounds (203152, 201273, 201326 and 201330) proved to be mutagenic

COc1ccc2c(c1)c(CC(=O)O)c(C)n2C(=O)c1ccc(Cl)cc1 [Indomethacin, reference compound]
/o vs controls (paw weight, inflammation index) [2]: 57 /o

C[C@H]1C[C@@H]2[C@H]([C@@H](O)C[C@@]3(C)[C@H]2CC[C@]3(O)C(=O)CO)[C@@]2(C)C=CC(=O)C=C12 [Methylprednisolone, reference compound]
/o vs controls (paw weight, inflammation index) [2]: 56 /o

CCCCC[C@H](O)/C=C/[C@@H]1[C@H]2C/C(=C/CCCC(=O)O)O[C@H]2C[C@H]1O [PG12, reference compound]
IC50 [4]: 0.05 µM
